{
  "source": "patent US12643901B2",
  "about": "“Compounds” (The Provost, Fellows, Foundation Scholars, and the other …, priority 2020, dated 2026)",
  "key": {"RASFCs": {"system": "RASFCs", "assay": "Synovial fibroblast assay, IL-6 ELISA", "assay_type": "cell-based, human", "conditions": "RASFCs treated with TNF (10 ng/ml), 200 μm compound, supernatants at 72 hr, n=3, DMSO vehicle = 100%", "protocol": "Synovial Fibroblast Assay\nTo assess the compounds in human rheumatoid arthritis samples the following protocol was employed:\nIsolation of Primary Fibroblasts: RA synovial biopsies were digested with 1 mg/ml collagenase type 1 (Worthington Biochemical, Freehold, NJ, USA) in RPMI-1640 (Gibco-BRL, Paisley, UK) for 4 hr at 37° C. in humidified air with 5% CO2. Dissociated cells were grown to confluence in RPMI 1640, 10% FCS (Gibco-BRL), 10 ml of 1 mmol/l HEPES (Gibco-BRL), penicillin (100 units/ml; Bioscience), streptomycin (100 units/ml; Bioscience) and fungizone (0.25 μg/ml; Bioscience) before passaging. Cells were used between passages 3-8.\nCompounds (200 μm) were tested on n=3 RASFCs\nRASFCs were grown to 80% confluency in 48 well plates. RASFCs were treated with TNF (10 ng/ml) in the presence of 200 μm of each compound. Media was replaced after 24 h and fresh media and compound was added. Cell supernatants were collected at 72 hr time point. DMSO treated cells were used as a vehicle control (Red dotted line represents DMSO control).\nIL-6 ELISA: Levels of pro-inflammatory cytokine IL6 were measured in cultured RASFC supernatants by specific ELISA (R&D systems, UK) according to manufacturer's conditions.\nThis assay measures the production of IL-6 as an indication of immune system activation: the lower the value the better from the point of view of alleviating RA symptoms. […]"}, "[1]": {"biological_target": "T1, queuine-tRNA ribosyltransferase enzyme complex (hQTRT1:hQTRT2) (Homo sapiens, UniProt Q9BXR0)", "T1 construct": "polyhistidine (N); made in house; host or cells: E. coli BL21(DE3) tgt::Kmr", "T1 sequence (Q9BXR0 whole entry)": "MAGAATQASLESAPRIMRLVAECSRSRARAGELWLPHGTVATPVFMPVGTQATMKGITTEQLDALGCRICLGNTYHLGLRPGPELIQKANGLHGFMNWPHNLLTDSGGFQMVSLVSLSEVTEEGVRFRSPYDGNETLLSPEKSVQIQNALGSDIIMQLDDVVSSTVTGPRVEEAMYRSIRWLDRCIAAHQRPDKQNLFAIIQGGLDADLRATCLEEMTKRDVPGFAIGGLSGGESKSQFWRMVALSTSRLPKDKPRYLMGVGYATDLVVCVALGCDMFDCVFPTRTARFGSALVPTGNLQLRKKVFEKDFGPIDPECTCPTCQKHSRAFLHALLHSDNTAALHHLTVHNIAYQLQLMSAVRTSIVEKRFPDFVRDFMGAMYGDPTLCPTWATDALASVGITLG", "T1 sequence (Q9H974 whole entry partner)": "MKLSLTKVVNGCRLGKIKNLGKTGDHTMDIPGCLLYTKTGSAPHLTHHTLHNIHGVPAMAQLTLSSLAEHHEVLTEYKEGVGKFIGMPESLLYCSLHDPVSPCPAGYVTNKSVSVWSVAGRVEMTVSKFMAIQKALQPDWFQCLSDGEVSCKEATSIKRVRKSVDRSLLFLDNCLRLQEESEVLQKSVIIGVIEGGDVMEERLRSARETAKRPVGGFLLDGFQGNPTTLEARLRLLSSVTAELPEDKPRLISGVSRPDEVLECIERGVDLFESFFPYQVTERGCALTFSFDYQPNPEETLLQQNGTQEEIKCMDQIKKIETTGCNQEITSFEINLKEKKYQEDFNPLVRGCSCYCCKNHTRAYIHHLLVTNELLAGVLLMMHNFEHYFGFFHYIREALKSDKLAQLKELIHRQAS", "assay": "[8-14C] guanine displacement assay (TGT substrate)", "assay_type": "biochemical", "conditions": "50 μM compound, 30 mins at 37° C., ≥5% is considered a positive substrate for TGT", "protocol": "Compounds capable of acting as a queuine-tRNA ribosyltransferase enzyme complex substrate may be identified by use of a displacement assay as described below:\nProduction of [8-^14C] Guanine Labeled tRNA (tRNA*)\nBefore adding the 8-[^14C] guanine solution to the reaction the solution was neutralised with an equal volume (vol/vol) 0.01 M NaOH, as the [8-^14C] Guanine is supplied in 0.01 M HCl aqueous solution. In vitro synthesised human tyrosyl tRNA was prepared by T7 transcription in ultrapure nuclease-free water as described previously (Alqasem et al., 2020). Recombinant human QTRT1 enzyme containing an N-terminal polyhistidine tag and human QTRT2 containing a C-terminal TEV-Strep-Tag®II tag were produced in BL21(DE3) tgt::Kmr cells as described previously (Alqasem et al., 2020).\nThe reaction was incubated for 1 hour at 37° C. […] The tRNA* pellet was resuspended in 30 μL nuclease-free water and the concentration measured spectrophotometrically at A260. […]\nAfter 30 mins the reactions were quenched by mixing with 2.5 ml ice-cold 10% trichloroacetic acid (TCA) and placed on ice for one hour to precipitate the tRNA. […] The vacuum manifold was disassembled, the filters recovered and dried again at room temperature before being placed in scintillation vials containing 10 ml of Ecoscint A and radioactivity levels measured by scintillation counting. […]"}},
  "data": [
    {"molecule": "Nc1nc2[nH]cc(CNOCCc3ccccc3)c2c(=O)[nH]1", "note": "[Example 1, 2-Amino-5-((phenethoxyamino)methyl)-3,7-dihydro-4H-pyrrolo[2,3-d]pyrimidin-4-one]", "values": [
      {"measurement": "Level of IL6 expression compared to vehicle", "setting": "RASFCs", "result": "Reduction to 17%"}
    ]},
    {"molecule": "CO/N=C/c1c[nH]c2nc(N)[nH]c(=O)c12", "note": "[Example 2, 2-Amino-4-oxo-4,7-dihydro-3H-pyrrolo[2,3-d]pyrimidine-5-carbaldehyde O-methyl oxime]", "values": [
      {"measurement": "Level of IL6 expression compared to vehicle", "setting": "RASFCs", "result": "Reduction to 15%"}
    ]},
    {"molecule": "Nc1nc2[nH]cc(/C=N/O)c2c(=O)[nH]1", "note": "[Example 4, 2-Amino-4-oxo-4,7-dihydro-3H-pyrrolo[2,3-d]pyrimidine-5-carbaldehyde oxime]", "values": [
      {"measurement": "Level of IL6 expression compared to vehicle", "setting": "RASFCs", "result": "Reduction to 15%"}
    ]},
    {"molecule": "C[C@@H]1CCN(C(=O)CC#N)C[C@@H]1N(C)c1ncnc2[nH]ccc12", "note": "[Tofacitinib, reference compound]", "values": [
      {"measurement": "Level of IL6 expression compared to vehicle", "setting": "RASFCs", "result": "Reduction to 58%"}
    ]},
    {"molecule": "Nc1nc2[nH]cc(CN[C@H]3C=C[C@H](O)[C@@H]3O)c2c(=O)[nH]1", "note": "[queuine base, queuine]", "values": [
      {"measurement": "displacement of the [14C] guanine", "setting": "[1]", "result": "> 98", "unit": "%"}
    ]}
  ]
}
